In US12514859B2, “Pyrazole pyrimidine derivative and uses thereof” (Yissum Research Development Company of the Hebrew …, priority 2015, dated 2026):

Legend:
[1] = system: bone marrow cells isolated from CML blast crisis mice; experiment: Ex vivo inhibitor effects on bone marrow cells from CML blast crisis mice; type: cell-based, mouse; settings: 8 hours
Procedure: Ex vivo inhibitor effects (FIGS. 2A and 13A-E). Freshly isolated BM from AML (13A-E) or CML blast crisis (2A) carrying mice were grown in RPMI supplemented with 15% FCS, L-Glutamine, Pen/Strep, Hepes, Sodium Pyruvate and non-essential amino acids (Biological Industries, Israel). CKI inhibitors (A14, A51, A75 or A86) were dissolved in DMSO and added to the tissue culture medium at the indicated concentrations; control cultures were treated with DMSO only. Several hours following treatment (as indicated in each experiment), cells were harvested and counted manually using a camera and standard inverted light microscope. Dead cells were excluded using Trypan Blue (Sigma). AnnexinV-PE (MBL), 7AAD (Tonbo) and PD-L1 (BioLegend) staining was evaluated by FACS according to manufacturer's recommendation.
FACS analysis. All assays were performed on BD's equipment: FACS caliber, FACS ARIA sorter or LSR II machines. For immunostaining, cells were suspended in a 1% BSA/PBS buffer with […]. Cells were then analyzed by using Annexin V PE Apootosis Detection Kit (eBioscience), 7-AAD (TONBO biosciences) and PE anti-mouse CD274 (B7-H1, PD-L1) antibody (clone 10F.9G2, BioLegend); Assays were performed according to the manufacturer's instruction. Monoclonal antibodies specific for CD16 and CD32 (Miltenyi Biotec) were used for blockade of Fc receptors before staining.

AML mice (MLL-AF9) = experiment: MLL-AF9 acute myeloid leukemia (AML) mouse model; type: in vivo; settings: oral gavage 20 mg/kg for 3 days then 10 mg/kg/day for 6 days
Procedure: Generation of a mouse model of acute myeloid leukemia (AML) (FIG. 6) and treatment with the CKIα inhibitor A14 (FIGS. 7, 8 and 9) or A51 (FIGS. 11 and 12). To generate the MLL-AF9 Acute myeloid leukemia (AML) model, bone marrow (BM) cells from 10 week old wild type mouse were extracted and enriched for cKit expressing cells (EasySep #18757) and incubated overnight in RPMI supplemented with 15% FCS L-Glutamine, Pen/Strep (Biological Industries, Israel) and stem cell factor (SCF), IL-3, IL-6 and TPO (Peprotech). The culture was infected with MSCV-MLL-AF9-IRES-GFP retrovirus construct containing supernatant medium for 4 hours, then growth medium was added and infected cells were incubated at 37° C. for additional 24 h. The culture was then injected I.V. into sub lethally irradiated (500 rad) mice. Upon detectable steady increase of GFP expressing cells in the mice peripheral blood (checked by FACS analysis) and rise in leukocyte numbers and immature cells (detected by Wright-Giemsa stained blood films), mice were sacrificed and their BM was transferred (1st BMT) to sublethally irradiated WT hosts. Upon emergence of AML disease mice were sacrificed and 50,000 BM cells were transplanted (2nd BMT) into WT host mice. GFP expressing cells were monitored in the peripheral blood and upon detecting >10% GFP^+ in PB (day 11 after BMT) mice were treated with A14 inhibitor (FIG. 7A). A14 was administered by oral gavage once a day at a dose of 20 mg/kg for 3 days followed by 10 mg/kg/day for 6 more days. The inhibitor was dissolved in 1% methyl cellulose with 0.1% Tween 80 and 0.2% Poly-ethylene glycol (Vehicle). Control mice were treated with the vehicle only. Mice were monitored daily for cachexia, lethargy, and ruff coats, and moribund mice were sacrificed. For a single dose experiment (FIG. 11A) A51 was administered by oral gavage at a single dose of 20 mg/kg and mice were sacrificed 16 hours following treatment.
Complete blood counts. Peripheral venous blood was obtained from the mouse facial vein using standard techniques and analyzed using the auto hematology analyzer BC-2800 (Mindray) per manufacturer's instructions.
Single-dose treatment effect of a CKI inhibitor in AML mice and PD-L1 expression. AML mice were prepared by inoculating MLL-AF9 oncogene-transduced bone marrow cells to C57/BL6 mice. MLL-AF9 fusion represents one of a poor prognosis human AML induced by chromosomal translocation. 30 days after leukemia inoculation, the recipient mice have high white blood cells (WBC) counts (×10 higher than a normal mouse), and harbor >95% leukemia blasts in the bone marrow and 50% of the peripheral WBC in these mice are AML blasts. These mice have splenomegaly and their bones are pale and fragile due to the acute leukemia (FIG. 12).

CML blast crisis mice = experiment: CML blast crisis mouse model (BCR-ABL); type: in vivo; settings: oral 10 mg/kg once a day, day 9
Procedure: Generation of a mouse model of CML blast crisis and inhibitor studies in this model. To generate the BCR-ABL-inducible chronic myeloid leukemia (CML) model, bone marrow (BM) cells from 10 weeks wild type mouse were extracted and enriched for cKit expressing cells (EasySep #18757) and incubated overnight at 37° C. in RPMI growth medium supplemented with 15% FCS, L-Glutamine, Pen/Strep (Biological Industries, Israel) and stem cell factor (SCF), IL-3, IL-6 and TPO (Peprotcch). The culture was then infected with p210BCR-ABL-IRES-GFP retrovirus construct containing supernatant medium for 4 hours, then growth medium was added and infected cells were incubated at 37° C. for additional 24 h. […] Upon observing a fast steady increase of GFP-expressing cells in the peripheral blood of inoculated mice (by FACS) and rising numbers of leukocyte and immature cells (detected by Wright-Giemsa stained blood films), mice were sacrificed and their BM cells were transferred to new sublethally irradiated WT hosts; each such transfer was termed disease generation. […] Blast crisis development was readily detectable by a highly abnormal number of blast cells, more than 30% of white blood cells (WBC) in the peripheral blood (PB), and short time intervals between transfers. […] Mice were monitored daily for cachexia, weight loss, lethargy, and ruff coats, and moribund mice were sacrificed upon moribund. […]

Q: Which results are given for Cn1ncc(-c2ccnc(N[C@H]3CC[C@H](N)CC3)n2)c1CC1CC1 [Compound A14, (1R, 4R)—N^1-(4-(5-(cyclopropylmethyl)-1-methyl-1H-pyrazol-4-yl)pyrimidin-2-yl)cyclohexane-1,4-diamine]?
A: apoptosis of bone marrow cells (Annexin5+/7AAD−) (in words) ([1]; dose dependent): induces apoptosis; total death (7AAD+) cells (in words) ([1]; dose dependent): increased percentage of total death (7AAD+) cells; leukemic cell number (in words) ([1]; dose response): dramatic reduction of the leukemic cell number; progression of AML, GFP+ leukocytes in peripheral blood (in words) (AML mice (MLL-AF9)): inhibitory effect; leukemia cell burden in the peripheral blood and bone marrow (in words) (CML blast crisis mice): significantly reduces the leukemia cell burden
